Measured values reported in US20010006969A1, “PYRIMIDINE NUCLEUS-CONTAINING COMPOUND AND A MEDICAMENT CONTAINING THE SAME FOR A BLOOD OXYGEN PARTIAL PRESSURE AMELIORATION, AND A METHOD FOR PREPARING THE SAME” (priority 1997, published 2001).
Structures can show the parent of a compound that is named as a salt.

Experiments:
hypoxemic model rats = experiment: Determination of oxygen partial pressure increasing action (arterial blood PaO2 gain in hypoxemic model rats); type: in vivo, Sprague-Dawley male rats; settings: urethane-anesthetized rats, i.v. continuously 0.1 mg/kg/min, PaO2 measured 10 minutes after completion of administration, gain before vs after
Experimental: Determination of oxygen partial pressure increasing action
Actions of the quinazoline derivatives of the present invention to increase oxygen partial pressure in the arterial blood were determined according to the following method:
Sprague-Dawley male rats having body weights of about 250 g were anesthetized (i.p.) with urethane and cannulated to the respiratory tracts, femoral arteries and femoral veins. An olive oil-charcoal powder suspension (10 mg/ml) was introduced in an amount of 0.8 ml/kg through the respiratory tract cannulae into the lungs to cause the rats to hypoxic state (PaO2≦75 mmHg). The quinazoline derivatives listed in Table 1 were intravenously administered to these hypoxemic model rats continuously at a rate of 0.1 mg/kg/min, and arterial blood oxygen partial pressure value (PaO2) of each rat was measured at the time point of 10 minutes after completion of administration using a blood gas analyzer (Ciba Corning 800 series). Gains (APaO2) were determined based on results of PaO2 measurement made before and after administration of the test compounds.
Actions of the thienopyrimidine derivatives of the present invention to increase oxygen partial pressure in the arterial blood were determined according to the following method:
Sprague-Dawley male rats having body weights of about 250 g were anesthetized (i.p.) with urethane and cannulated to the respiratory tracts, femoral arteries and femoral veins. An olive oil-charcoal powder suspension (10 mg/ml) was introduced in an amount of 0.8 ml/kg through the respiratory tract cannulae into the lungs to cause the rats to be under hypoxic state (PaO2 Δ 75 mmHg). The thienopyrimidine derivatives listed in Table 2 were intravenously administered to these hypoxemic model rats continuously at a rate of 0.1 mg/kg/min, and arterial blood oxygen partial pressure value (PaO2) of each rat was measured at the time point of 10 minutes after completion of administration using a blood gas analyzer (Ciba Corning 800 series). Gains (ΔPaO2) were determined based on results of PaO2 measurement made before and after administration of the test compounds.

[1] = quinazoline derivatives, hypoxic state (PaO2≦75 mmHg) by olive oil-charcoal powder suspension
[2] = thienopyrimidine derivatives, hypoxic state (PaO2 Δ 75 mmHg) by olive oil-charcoal powder suspension

Structure (SMILES)	melting point	ΔPaO2 (hypoxemic model rats; [1]) [mmHg]	ΔPaO2 (hypoxemic model rats; [2]) [mmHg]
C=CCNc1nc(NCCC)nc2ccc([N+](=O)[O-])cc12 [Example 4, 4-Allylamino-6-nitro-2-propylaminoquinazoline]	197 to 198 °C	34	–
C=CCNc1nc(NC2CCCCC2)nc2ccc([N+](=O)[O-])cc12 [Example 7, 4-Allylamino-2-cyclohexylamino-6-nitroquinazoline]	183 to 184 °C	35	–
C=CCNc1nc(NCCC)c2cc([N+](=O)[O-])ccc2n1 [Example 10, 2-Allylamino-6-nitro-4-propylaminoquinazoline]	211 to 212 °C	34	–
C=CCNc1nc(NC(C)C)nc2ccc([N+](=O)[O-])cc12 [Example 18, 4-Allylamino-2-isopropylamino-6-nitroquinazoline]	150 to 151 °C	30	–
C=CCNc1nc(NCCCCC)c2cc([N+](=O)[O-])ccc2n1 [Example 25, 2-Allylamino-6-nitro-4-pentylaminoquinazoline hydrochloride]	–	46	–
C=CCNc1nc(NCCCCCCC)c2cc([N+](=O)[O-])ccc2n1 [Example 26, 2-Allylamino-4-heptylamino-6-nitroquinazoline hydrochloride]	–	46	–
C=CCNc1nc(NC2CCCC2)c2cc([N+](=O)[O-])ccc2n1 [Example 27, 2-Allylamino-4-cyclopentylamino-6-nitroquinazoline hydrochloride]	–	35	–
C=CCNc1nc(NC(C)C)c2cc([N+](=O)[O-])ccc2n1 [Example 28, 2-Allylamino-4-isopropylamino-6-nitroquinazoline hydrochloride]	–	26	–
C=CCNc1nc(NCCCC)nc2ccc([N+](=O)[O-])cc12 [Example 31, 4-Allylamino-2-butylamino-6-nitroquinazoline hydrochloride]	–	36	–
C=CCNc1nc(NCc2ccco2)nc2ccc([N+](=O)[O-])cc12 [Example 33, 4-Allylamino-2-furfurylamino-6-nitroquinazoline hydrochloride]	–	42	–
C=CCNc1nc(NC2CCCC2)nc2ccc([N+](=O)[O-])cc12 [Example 34, 4-Allylamino-2-cyclopentylamino-6-nitroquinazoline hydrochloride]	–	32	–
C=CCNc1nc(NCCCCC)nc2ccc([N+](=O)[O-])cc12 [Example 35, 4-Allylamino-6-nitro-2-pentylaminoquinazoline hydrochloride]	–	34	–
C=CCNc1nc(NC(C)CC)c2cc([N+](=O)[O-])ccc2n1 (stereo not drawn) [Example 49, 2-Allyiamino-4-(l-methylpropylamino)-6-nitroquinazoline hydrochloride]	–	32	–
C=CCNc1nc(NC2CCCCC2)c2scc(C)c2n1 [Example 70, 2-Allylamino-4-cyclohexylamino-7-methylthieno[3,2-d] pyrimidine hydrochloride]	–	–	42
C=CCNc1nc(N(CC=C)CC=C)c2scc(C)c2n1 [Example 71, 2-Allylamino-4-diallylamino-7-methylthieno[3,2-d] pyrimidine hydrochloride]	–	–	26
C=CCNc1nc(NC(CO)CO)c2scc(C)c2n1 [Example 73, 2-Allylamino-4-(1,3-dihydroxypropan-2-yl)amino-7-methylthieno[3,2-d]pyrimidine]	163 to 164 °C	–	–
C=CCNc1nc(NCCC)nc2c(C)csc12 [Example 86, 4-Allylamino-7-methyl-2-propylaminothieno[3,2-d] pyrimidine]	74 to 75 °C	–	–
C=CCNc1nc(NNC(C)(C)C)c2scc(C)c2n1 [Example 89, 2-Allylamino-4-(2-t-butylhydrazino)-7-methylthieno[3,2-d] pyrimidine]	105 to 107 °C	–	–
C=CCNc1nc(NC(=O)C(C)(C)C)c2scc(C)c2n1 [Example 90, 2-Allylamino-7-methyl-4-pivaloylaminothieno[3,2-d] pyrimidine]	88 to 89 °C	–	–
C=CCNc1nc(NC(=O)NC2CCCCC2)c2scc(C)c2n1 [Example 93, 2-Allylamino-4-(cyclohexylcarbamoyl)amino-7-methylthieno[3,2-d]pyrimidine]	152 to 153 °C	–	–
C=CCNC(=O)Nc1nc(NCC=C)nc2c(C)csc12 [Example 96, 2-Allylamino-4-(allylcarbamoyl)amino-7-methylthieno[3,2-d] pyrimidine]	164 to 165 °C	–	–
C#CCNc1nc(NCC=C)nc2c(C)csc12 [Example 99, 2-Allylamino-7-methyl-4-(2-propynylamino)thieno[3,2-d] pyrimidine]	95 to 96 °C	–	–
C=CCNc1nc(NCC(=C)C)c2scc(C)c2n1 [Example 100, 2-Allylamino-7-methyl-4-(2-methyl-2-propenylamino)thieno[3,2-d]pyrimidine]	83 °C	–	–
C=CCNc1nc(NC(C)(C)C)c2scc(CC)c2n1 [Example 104, 2-Allylamino-4-t-butylamino-7-ethylthieno[3,2-d]pyrimidine]	–	–	41
C=CCNc1nc(NCC=C)c2scc(CCC)c2n1 [Example 105, 2,4-Diallylamino-7-propylthieno[3,2-d]pyrimidine]	–	–	28
C=CCNc1nc(NC(C)(C)C)c2scc(CCC)c2n1 [Example 106, 2-Allylamino-4-t-butylamino-7-propylthieno[3,2-d] pyrimidine]	–	–	28
C=CCNc1nc(NC)c2scc(CCC)c2n1 [Example 107, 2-Allylamino-4-methylamino-7-propylthieno[3,2-d] pyrimidine]	–	–	41

Second part, led by results:

melting point	Structure (SMILES)	ΔPaO2 (hypoxemic model rats; [1]) [mmHg]	ΔPaO2 (hypoxemic model rats; [2]) [mmHg]
78 to 79 °C	C=CCNc1nc(NCC=C)c2cc(Cl)ccc2n1 [Example 1, 2,4-Diallylamino-6-chloroquinazoline]	35	–
198 to 200 °C (dec.)	C=CCNc1nc(NCC=C)c2cc([N+](=O)[O-])ccc2n1 [Example 3, 2,4-Diallylamino-6-nitroquinazoline]	28	–
167 to 168 °C	C=CCNc1nc(NCC(C)(C)C)nc2ccc([N+](=O)[O-])cc12 [Example 5, 4-Allylamino-2-neopentylamino-6-nitroquinazoline]	43	–
216 to 217 °C	C=CCNc1nc(NCc2ccccc2)nc2ccc([N+](=O)[O-])cc12 [Example 6, 4-Allylamino-2-benzylamino-6-nitroquinazoline]	48	–
211 to 212 °C	C=CCNc1nc(NC)c2cc([N+](=O)[O-])ccc2n1 [Example 21, 2-Allylamino-4-methylamino-6-nitroquinazoline]	26	–
106 to 107 °C	C=CCNc1nc(NC(C)C)c2scc(C)c2n1 [Example 77, 2-Allylamino-4-isopropylamino-7-methylthieno[3,2-d] pyrimidine]	–	–
87 to 88 °C	C=CCNc1nc(NCCOC)nc2c(C)csc12 [Example 85, 4-Allylamino-2-(2-methoxyethylamino)-7-methylthieno[3,2-d] pyrimidine]	–	–
141 °C	C=CCNc1nc(NC(=O)NCCCC)c2scc(C)c2n1 [Example 97, 2-Allylamino-4-(butylcarbamoyl)amino-7-methylthieno[3,2-d] pyrimidine]	–	–
98 to 101 °C	C=CCNc1nc(NC(=O)N2CCCC2)c2scc(C)c2n1 [Example 98, 2-Allylamino-7-methyl-4-(1-pyrrolidinylcarbonyl)aminothieno[3,2-d]pyrimidine]	–	–
114 to 115 °C	C=CCNc1nc(NCC=C(C)C)c2scc(C)c2n1 [Example 101, 2-Allylamino-7-methyl-4-(3-methyl-2-butenylamino)thieno[3,2-d]pyrimidine]	–	–
82 to 84 °C	C=CCNc1nc(NC/C=C/c2ccccc2)c2scc(C)c2n1 [Example 102, 2-Allylamino-4-(trans-cinnamylamino)-7-methylthieno[3,2-d] pyrimidine]	–	–
98 to 100 °C	C=CCNc1nc(NCC=C)c2scc(-c3ccccc3)c2n1 [Example 110, 2,4-Diallylamino-7-phenylthieno[3,2-d]pyrimidine]	–	–
87 to 88 °C	C=CCNc1nc(NCC=C)c2scc(Br)c2n1 [Example 111, 2,4-Diallylamino-7-bromothieno[3,2-d]pyrimidine]	–	–
95 to 96 °C	C=CCNC(=O)CCNc1nc(NCC=C)nc2c(C)csc12 [Example 112, 2-Allylamino-4-[2-(allylcarbamoyl)ethylamino]-7-methylthieno[3,2-d]pyrimidine]	–	–
